Laboratory results published in US20250152574A1 (BIOGEN MA INC., priority 2022, published 2025).

molecular target: T1, EBP (Homo sapiens, UniProt Q15125); assay: EBP Functional Assay (EBP immunoaffinity LC-MS assay); type: biochemical; settings: HEK293T cells as source of EBP enzyme; substrate zymosterol-d5, 37° C. for 4 h; percent conversion to dehydrolathosterol-d5 by LC-APCI MRM MS
T1 construct: HEK293T cells were utilized as the source of EBP enzyme; endogenous in cells; host or cells: HEK293T
Description: The EBP immunoaffinity (IA) LC-MS assay measures the potency of small molecule inhibitors of EBP by quantifying their concentration-dependent changes in the enzyme's substrate and product using liquid chromatography atmospheric pressure chemical ionization multiple reaction monitoring mass spectrometry (LC-APCI MRM MS). HEK293T cells were utilized as the source of EBP enzyme. The enzyme was incubated with the small molecule inhibitors at variable concentrations for 30 min. Deuterated form of EBP substrate, zymosterol-d5 (Avanti Polar Lipids, Cat #700068P-1 mg), was then added and the plate was incubated at 37° C. for 4 h. Finally, the sterol isomers were extracted and injected to LC-APCI MRM MS. MRM transition used for the quantification for both zymosterol and […] (substrate and product of EBP enzymatic reaction, respectively) is 372.3-203.2, CE 30 and DP 80 in positive ion mode. Percent conversion of the zymosterol-d5 to dehydrolathosterol-d5 was used to derive IC50 curves. Tasin-1 (1′-[(4-Methoxyphenyl)sulfonyl]-4-methyl-1,4′-bipiperidine, CAS 792927-06-1) was used as the reference small molecule inhibitor.
Percent conversion versus the compound concentration data were fit to the following 4-parameter logistic model to generate IC50 curves: […]

T1 sequence (Q15125 whole entry): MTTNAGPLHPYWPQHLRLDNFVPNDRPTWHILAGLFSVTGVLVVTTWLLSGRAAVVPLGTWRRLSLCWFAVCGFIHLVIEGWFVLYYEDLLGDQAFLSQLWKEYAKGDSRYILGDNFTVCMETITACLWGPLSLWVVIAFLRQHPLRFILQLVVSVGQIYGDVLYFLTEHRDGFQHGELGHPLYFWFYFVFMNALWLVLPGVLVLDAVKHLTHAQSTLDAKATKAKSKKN

| SMILES | IC50 [µM] |
| --- | --- |
| N#Cc1cc(S(=O)(=O)N2CCC3(CCC(N4CC5(COC5)C4)C3)CC2)ccc1F (centres unmarked) [Example 127, 5-((2-(2-oxa-6-azaspiro[3.3]heptan-6-yl)-8-azaspiro[4.5]decan-8-yl)sulfonyl)-2-fluorobenzonitrile] | 0.25 to 1.5 |
| O=S(=O)(c1cccc2ccnn12)N1CCC2(CCC(N3CC4(COC4)C3)C2)CC1 (centres unmarked) [Example 131, 6-(8-(pyrazolo[1,5-a]pyridin-7-ylsulfonyl)-8-azaspiro[4.5]decan-2-yl)-2-oxa-6-azaspiro[3.3]heptane] | 0.1 to 0.25 |
| Cc1cc(S(=O)(=O)N2CCC3(CC[C@H](N4CC5(COC5)C4)C3)CC2)n(C)n1 (single isomer, unassigned) [Example 68b] | 0.1 to 0.25 |
| COC1CN(C2COC3(CCN(S(=O)(=O)c4cc(C5CC5)nn4C)CC3)C2)C1 (centres unmarked) [Example 58, 8-((3-Cyclopropyl-1-methyl-1H-pyrazol-5-yl)sulfonyl)-3-(3-methoxyazetidin-1-yl)-1-oxa-8-azaspiro[4.5]decane] | 0.25 to 1.5 |
| CC1(O)CCN([C@@H]2COC3(CCN(S(=O)(=O)c4cc(C#N)ccc4F)CC3)C2)CC1 (single isomer, unassigned) [Example 141] | 0.25 to 1.5 |
| COc1ncc(C)cc1S(=O)(=O)N1CCC2(CCC(N3CC4(CCOC4)C3)C2)CC1 (centres unmarked) [Example 43] | < 0.1 |
| O=S(=O)(c1cc(F)cc(F)c1)N1CCC2(CC1)C[C@H](N1CC3(COC3)C1)CO2 (single isomer, unassigned) [Example 119a] | < 0.1 |
| COc1ncc(Cl)cc1S(=O)(=O)N1CCC2(CC1)C[C@@H](N1CC3(COC3)C1)CO2 (single isomer, unassigned) [Example 63a] | < 0.1 |
| Cc1nc(C(F)(F)F)ccc1S(=O)(=O)N1CCC2(CC1)CC(N1CC(O)C1)C2 [Example 95, 1-(7-((2-methyl-6-(trifluoromethyl)pyridin-3-yl)sulfonyl)-7-azaspiro[3.5]nonan-2-yl)azetidin-3-ol] | < 0.1 |
| COCCNC1COC2(CCN(S(=O)(=O)c3ccc(C)cc3C)CC2)C1 (centres unmarked) [Example 116, 8-((2,4-dimethylphenyl)sulfonyl)-N-(2-methoxyethyl)-1-oxa-8-azaspiro[4.5]decan-3-amine] | 0.25 to 1.5 |
| Cn1nc(C2CC2)cc1S(=O)(=O)N1CCC2(CC1)C[C@H](N1CC3(COC3)C1)CO2 (single isomer, unassigned) [Example 57b] | 0.25 to 1.5 |
| COCCNC1COC2(CCN(S(=O)(=O)c3cc(C)cnc3OC)CC2)C1 (centres unmarked) [Example 65, 8-((2-Methoxy-5-methylpyridin-3-yl)sulfonyl)-N-(2-methoxyethyl)-1-oxa-8-azaspiro[4.5]decan-3-amine] | 0.1 to 0.25 |
| O=S(=O)(c1ccc(F)cc1)N1CCC2(CC1)CC(N1CC3(COC3)C1)CO2 (centres unmarked) [Example 8] | 0.25 to 1.5 |
| O=S(=O)(c1ccc2cccnc2c1)N1CCC2(CCC(N3CC4(COC4)C3)C2)CC1 (centres unmarked) [Example 144, 6-(8-(quinolin-7-ylsulfonyl)-8-azaspiro[4.5]decan-2-yl)-2-oxa-6-azaspiro[3.3]heptane] | 0.1 to 0.25 |
| COc1ccc(S(=O)(=O)N2CCC3(CC2)CC(N(C)C2CC4(COC4)C2)CO3)c(F)c1 (centres unmarked) [Example 136, 8-((2-fluoro-4-methoxyphenyl)sulfonyl)-N-methyl-N-(2-oxaspiro[3.3]heptan-6-yl)-1-oxa-8-azaspiro[4.5]decan-3-amine] | 0.1 to 0.25 |
| Cc1cc(S(=O)(=O)N2CCC3(CC[C@H](N4CCOCC4)C3)CC2)n(C)n1 (single isomer, unassigned) [Example 22b] | 0.1 to 0.25 |
| Cc1cc(S(=O)(=O)N2CCC3(CC[C@@H](N4CCOCC4)C3)CC2)n(C)n1 (single isomer, unassigned) [Example 22a] | 0.25 to 1.5 |
| COc1cc(S(=O)(=O)N2CCC3(CCC(N4CC5(COC5)C4)C3)CC2)ccn1 (centres unmarked) [Example 112] | < 0.1 |
| O=S(=O)(c1ccc(OC(F)(F)F)cn1)N1CCC2(CCC(N3CC4(COC4)C3)C2)CC1 (centres unmarked) [Example 114] | 0.25 to 1.5 |
| N#Cc1cc(F)cc(S(=O)(=O)N2CCC3(CCC(N4C[C@H]5C[C@@H]4CO5)C3)CC2)c1 (stereo partly drawn) [Example 97, 3-((2-((1R,4R)-2-oxa-5-azabicyclo[2.2.1]heptan-5-yl)-8-azaspiro[4.5]decan-8-yl)sulfonyl)-5-fluorobenzonitrile] | 0.1 to 0.25 |
| O=S(=O)(c1cc(C(F)F)nn1C1CC1)N1CCC2(CC1)CC(N1CC3(COC3)C1)C2 [Example 123, 6-(7-((1-cyclopropyl-3-(difluoromethyl)-1H-pyrazol-5-yl)sulfonyl)-7-azaspiro[3.5]nonan-2-yl)-2-oxa-6-azaspiro[3.3]heptane] | < 0.1 |
| Cn1nc(C(F)F)cc1S(=O)(=O)N1CCC2(CCC(N3CC4(COC4)C3)C2)CC1 (centres unmarked) [Example 125, 6-(8-((3-(difluoromethyl)-1-methyl-1H-pyrazol-5-yl)sulfonyl)-8-azaspiro[4.5]decan-2-yl)-2-oxa-6-azaspiro[3.3]heptane] | < 0.1 |
| Cc1cc(S(=O)(=O)N2CCC3(CCC(N4CCOCC4)C3)CC2)n(C)n1 (centres unmarked) [Example 21, 4-(8-((1,3-Dimethyl-1H-pyrazol-5-yl)sulfonyl)-8-azaspiro[4.5]decan-2-yl)morpholine] | 0.1 to 0.25 |
| O=S(=O)(c1ccc(OC(F)F)cc1)N1CCC2(CCC(N3C[C@@H]4C[C@H]3CO4)C2)CC1 (stereo partly drawn) [Example 89, (1S,4S)-5-(8-((4-(difluoromethoxy)phenyl)sulfonyl)-8-azaspiro[4.5]decan-2-yl)-2-oxa-5-azabicyclo[2.2.1]heptane] | 0.1 to 0.25 |
| O=S(=O)(c1cc2cccnc2cc1F)N1CCC2(CCC(N3CC4(COC4)C3)C2)CC1 (centres unmarked) [Example 102, 6-(8-((7-fluoroquinolin-6-yl)sulfonyl)-8-azaspiro[4.5]decan-2-yl)-2-oxa-6-azaspiro[3.3]heptane] | 0.1 to 0.25 |
| N#Cc1cc(F)cc(S(=O)(=O)N2CCC3(CC2)CC(N2CC4(COC4)C2)C3)c1 [Example 96, 3-((2-(2-oxa-6-azaspiro[3.3]heptan-6-yl)-7-azaspiro[3.5]nonan-7-yl)sulfonyl)-5-fluorobenzonitrile] | 0.25 to 1.5 |
| O=S(=O)(c1ccc(OC(F)F)cc1)N1CCC2(CC1)C[C@H](N1CC[C@]3(CCOC3)C1)CO2 (single isomer, unassigned) [Example 30b] | 0.25 to 1.5 |

Further lines, results first:

| IC50 [µM] | SMILES |
| --- | --- |
| < 0.1 | O=S(=O)(c1cnc2ccccc2c1)N1CCC2(CCC(N3CC4(COC4)C3)C2)CC1 (centres unmarked) [Example 103] |
| < 0.1 | O=S(=O)(c1ccc(OC(F)F)cc1)N1CCC2(CC[C@H](N3C[C@H]4C[C@@H]3CO4)C2)CC1 (single isomer, unassigned) [Example 86b] |
| 0.25 to 1.5 | Cc1cc(C(F)(F)F)ncc1S(=O)(=O)N1CCC2(CC1)CC(N1CCOCC1)CO2 (centres unmarked) [Example 4] |
| 0.1 to 0.25 | Cn1nc(C2CC2)cc1S(=O)(=O)N1CCC2(CC1)CC(N1CC3(COC3)C1)CO2 (centres unmarked) [Example 56, 8-((3-Cyclopropyl-1-methyl-1H-pyrazol-5-yl)sulfonyl)-3-(2-oxa-6-azaspiro[3.3]heptan-6-yl)-1-oxa-8-azaspiro[4.5]decane] |
| < 0.1 | Cc1nc(C(F)(F)F)ncc1S(=O)(=O)N1CCC2(CC1)CC(N(C)C1CC3(COC3)C1)CO2 (centres unmarked) [Example 140, N-methyl-8-((4-methyl-2-(trifluoromethyl)pyrimidin-5-yl)sulfonyl)-N-(2-oxaspiro[3.3]heptan-6-yl)-1-oxa-8-azaspiro[4.5]decan-3-amine] |
| 0.1 to 0.25 | N#Cc1ccc(F)c(S(=O)(=O)N2CCC3(CC2)CC(N2CCCCC2)CO3)c1 (centres unmarked) [Example 47, 4-Fluoro-3-((3-(piperidin-1-yl)-1-oxa-8-azaspiro[4.5]decan-8-yl)sulfonyl)benzonitrile] |
| 0.25 to 1.5 | COc1ncc(Cl)cc1S(=O)(=O)N1CCC2(CC1)CC(N1CC3(COC3)C1)CO2 (centres unmarked) [Example 62, 8-((5-Chloro-2-methoxypyridin-3-yl)sulfonyl)-3-(2-oxa-6-azaspiro[3.3]heptan-6-yl)-1-oxa-8-azaspiro[4.5]decane] |
| 0.1 to 0.25 | Cc1ccc(S(=O)(=O)N2CCC3(CC2)CC(N2CC(O)C2)CO3)c(Cl)c1 (centres unmarked) [Example 52, 1-(8-((2-Chloro-4-methylphenyl)sulfonyl)-1-oxa-8-azaspiro[4.5]decan-3-yl)azetidin-3-ol] |
| < 0.1 | COc1ncc(C)cc1S(=O)(=O)N1CCC2(CCC(NC3(C)CCOC3)C2)CC1 (centres unmarked) [Example 42] |
| < 0.1 | COCCN(C)C1CCC2(CCN(S(=O)(=O)c3ccc(OC)nc3C)CC2)C1 (centres unmarked) [Example 100, 8-((6-methoxy-2-methylpyridin-3-yl)sulfonyl)-N-(2-methoxyethyl)-N-methyl-8-azaspiro[4.5]decan-2-amine] |
| < 0.1 | O=S(=O)(c1cnc2cccc(F)c2c1)N1CCC2(CCC(N3CC4(COC4)C3)C2)CC1 (centres unmarked) [Example 132, 6-(8-((5-fluoroquinolin-3-yl)sulfonyl)-8-azaspiro[4.5]decan-2-yl)-2-oxa-6-azaspiro[3.3]heptane] |
| 0.25 to 1.5 | Cc1cc(F)c(S(=O)(=O)N2CCC3(CC2)CC(N2CCOCC2)CO3)c(F)c1 (centres unmarked) [Example 16] |
| 0.1 to 0.25 | Cc1ccc(F)c(S(=O)(=O)N2CCC3(CC2)CC(N2CCOCC2)CO3)c1 (centres unmarked) [Example 18, 8-((2-Fluoro-5-methylphenyl)sulfonyl)-3-morpholino-1-oxa-8-azaspiro[4.5]decane] |
| 0.1 to 0.25 | COc1ncc(C)cc1S(=O)(=O)N1CCC2(CCC(NC3(C)COC3)C2)CC1 (centres unmarked) [Example 41] |
